# Assay results reported in patent publication US20070129252A1, “2-Halo-6-alkylphenyl-substituted spirocyclic tetramic acid derivatives” (BAYER CROPSCIENCE AKTIENGESELLSCHAFT, priority 2003, published 2007).
# Assays:
# Type in all cases: in vivo
# [1] = system: Avena sativa; experiment: Herbicidal post-emergence action (Example M); details: greenhouse, 320 g of a.i./ha, about 3 weeks
# Protocol: (§1) Herbicidal Post-Emergence Action
# (§2) Seeds of monocotyledonous and dicotyledonous weed and crop plants are placed into sandy loam in wood fibre pots, covered with soil and cultivated in a greenhouse under good growth conditions. 2-3 weeks after sowing, the test plants are treated at the one-leaf stage. The test compounds, formulated as wettable powders (WP), are, in various dosages with a water application rate of 600 l/ha (converted), with 0.2% of wetting agent added, sprayed onto the green parts of the plants. After the test plants were kept in the greenhouse under optimum growth conditions for about 3 weeks, the effect of the preparations is rated visually in comparison to untreated controls (herbicidal effect in percent (%): 100% effect=the plants have died, 0% effect=like control plants).
# [2] = system: Lolium; experiment: Herbicidal post-emergence action (Example M); details: greenhouse, 320 g of a.i./ha, about 3 weeks
# Protocol: as §1, §2
# [3] = system: Setaria; experiment: Herbicidal post-emergence action (Example M); details: greenhouse, 320 g of a.i./ha, about 3 weeks
# Protocol: as §1, §2
# [4] = system: summer wheat; experiment: Herbicidal post-emergence action, vessel trials with cereals in the greenhouse, use of safeners (Example N); details: without safener
# Protocol: as §1
# (§3) Seeds of monocotyledonous and dicotyledonous weed and crop plants are placed into sandy loam in wood fibre pots or in plastic pots, covered with soil and cultivated in a greenhouse, during the vegetation period also outdoors outside of the greenhouse, under good growth conditions. 2-3 weeks after sowing, the test plants are treated at the one- to three-leaf stage. The test compounds, formulated as wettable powders (WP) or emulsifiable concentrates (EC) are, in various dosages with a water application rate of 300 l/ha (converted), with wetting agent (0.2 to 0.3%) added, sprayed onto the plants and the surface of the soil. 3-4 weeks after the treatment of the test plants, the effect of the preparations is rated visually in comparison to untreated controls (herbicidal effect in percent (%): 100% effect=the plants have died, 0% effect=like control plants).
# (§4) If it is additionally to be tested as to whether safeners can improve the plant compatibility of test substances in the case of crop plants, the following options are used for applying the safener: • seeds of the crop plants are, before sowing, dressed with the safener substance (the amount of safener is stated in percent, based on the weight of the seed) • before the application of the test substances, the crop plants are sprayed with the safener at a certain application rate per hectare (usually 1 day before the application of the test substances) • the safener is applied together with the test substance as a tank mix (the amount of safener is stated in g/ha or as a ratio, based on the herbicide).
# (§5) By comparing the effect of the test substances on crop plants without or with safener treatment, it is possible to assess the effect of the safener substance.
# (§6) Vessel Trials with Cereals in the Greenhouse
# (§7) Mefenpyr applied 1 day prior to the application of herbicide
# [5] = system: Tetranychus urticae; experiment: Tetranychus test (OP-resistant/spray treatment); details: 100 g/ha; spray treatment; bean leaf discs
# Protocol: Tetranychus Test (OP-Resistant/Spray Treatment)
# To produce a suitable preparation of active compound, 1 part by weight of active compound is mixed with the stated amounts of solvents and emulsifier, and the concentrate is diluted with emulsifier-containing water to the desired concentration.
# Discs of bean leaves (Phaseolus vulgaris) which are infested by all stages of the greenhouse red spider mite (Tetranychus urticae) are sprayed with a preparation of active compound of the desired concentration.
# (§8) After the desired period of time, the activity in % is determined. 100% means that all spider mites have been killed; 0% means that none of the spider mites have been killed.
# [6] = system: Myzus persicae; experiment: Myzus test (spray treatment); details: 100 g/ha, Chinese cabbage discs
# Protocol: Myzus Test (Spray Treatment)
# (§9) To produce a suitable preparation of active compound, 1 part by weight of active compound is mixed with the stated amounts of solvent and emulsifier, and the concentrate is diluted with emulsifier-containing water to the desired concentration.
# Discs of Chinese cabbage (Brassica pekinensis), which are infested by all stages of the green peach aphid (Myzus persicae), are sprayed with a preparation of active compound of the desired concentration.
# After the desired period of time, the effect in % is determined. 100% means that all aphids have been killed; 0% means that none of the aphids have been killed.
# [7] = system: Sinapis; experiment: Herbicidal post-emergence action (Example M); details: greenhouse, 320 g of a.i./ha, about 3 weeks
# Protocol: as §1, §2
# [8] = system: Amaranthus; experiment: Herbicidal pre-emergence action (Example L); details: greenhouse, 320 g of a.i./ha, 3 weeks
# Excerpt: (§10) Herbicidal Pre-Emergence Action
# (§11) Seeds of monocotyledonous and dicotyledonous weed and crop plants are placed into sandy loam in wood fibre pots and covered with soil. The test compounds, formulated in the form of wettable powders (WP), are then, in various dosages as aqueous suspension with a water application rate of 600 l/ha (converted), with 0.2% of wetting agent added, applied to the surface of the covering soil.
# (§12) After the treatment, the pots are placed in a greenhouse and kept under good growth conditions for the test plants. The visual assessment of the emergence damage on the test plants is carried out after a trial period of 3 weeks by comparison with untreated controls (herbicidal effect in percent (%): 100% effect=the plants have died, 0% effect=like control plants).
# [9] = system: Lolium; experiment: Herbicidal pre-emergence action (Example L); details: greenhouse, 320 g of a.i./ha, 3 weeks
# Excerpt: as §10, §11, §12
# [10] = system: Setaria; experiment: Herbicidal pre-emergence action (Example L); details: greenhouse, 320 g of a.i./ha, 3 weeks
# Excerpt: as §10, §11, §12
# [11] = system: summer barley; experiment: Herbicidal post-emergence action, vessel trials with cereals in the greenhouse, use of safeners (Example N); details: without safener
# Protocol: as §1, §3, §4, §5, §6, §7
# [12] = system: Sinapis; experiment: Herbicidal pre-emergence action (Example L); details: greenhouse, 320 g of a.i./ha, 3 weeks
# Excerpt: as §10, §11, §12
# [13] = system: Stellaria; experiment: Herbicidal pre-emergence action (Example L); details: greenhouse, 320 g of a.i./ha, 3 weeks
# Excerpt: as §10, §11, §12
# [14] = system: Phaedon cochleariae; experiment: Phaedon test (spray treatment); details: 100 g/ha, Chinese cabbage discs
# Protocol: Phaedon Test (Spray Treatment) [table] To produce a suitable preparation of active compound, 1 part by weight of active compound is mixed with the stated amounts of solvents and emulsifier, and the concentrate is diluted with emulsifier-containing water to the desired concentration. Discs of Chinese cabbage (Brassica pekinensis) are sprayed with a preparation of active compound of the desired concentration and, after they have dried, populated with larvae of the mustard beetle (Phaedon cochleariae).
# [15] = system: Tetranychus urticae; experiment: Tetranychus test (OP-resistant/dip treatment); details: 4 ppm; dip treatment; bean plants (Table B)
# Protocol: Tetranychus Test (OP-Resistant/Dip Treatment)
# as §9
# Bean plants (Phaseolus vulgaris), which are heavily infested by all stages of the greenhouse red spider mite (Tetranychus urticae), are dipped into a preparation of active compound of the desired concentration.
# as §8
SMILES,"herbicidal effect in percent, Avena sativa [1]","herbicidal effect in percent, Lolium [2]","herbicidal effect in percent, Setaria [3]",summer wheat observed (%) ([4]; 12.5 g of a.i./ha),summer wheat observed (%) ([4]; 25 g of a.i./ha),summer wheat observed (%) ([4]; 50 g of a.i./ha),Kill rate in % after 5d [5],Kill rate in % after 5d [6],"herbicidal effect in percent, Sinapis [7]","herbicidal effect in percent, Amaranthus [8]","herbicidal effect in percent, Lolium [9]","herbicidal effect in percent, Setaria [10]",summer barley observed (%) ([11]; 12.5 g of a.i./ha),summer barley observed (%) ([11]; 25 g of a.i./ha),summer barley observed (%) ([11]; 50 g of a.i./ha),"herbicidal effect in percent, Sinapis [12]","herbicidal effect in percent, Stellaria [13]",Kill rate in % after 7d [14],Kill rate in % after 7d [15],summer barley observed (%) ([11]; 100 g of a.i./ha)
CCc1cc(C)cc(Br)c1C1=C(OC(=O)COC)C2(CCCCC2)NC1=O [Example I-b-2],90%,100%,100%,20%,70%,98%,,,,,,,,,,,,,,
"CCOC(=O)OC1=C(c2c(Br)cc(C)cc2CC)C(=O)NC12CCC(OC)CC2 (single isomer, unassigned) [I-c-3]",100%,100%,100%,,,,80%,80%,70%,100%,100%,100%,,,,,,,,
CCOC(=O)OC1=C(c2c(Br)cc(C)cc2CC)C(=O)NC12CCCCC2 [I-c-2],90%,90%,80%,,,,,,,,,,,,,,,,,
CCc1cc(C)cc(Br)c1C1=C(OC(=O)C(C)C)C2(CCCCC2)NC1=O [Example I-b-3],100%,90%,100%,10%,20%,75%,,,,,,,,,,,,,,
CCc1cc(C)cc(Br)c1C1=C(OC(=O)C(C)(C)C)C2(CCCCC2)NC1=O [I-b-4],80%,90%,90%,,,,,,,,,,,,,,,,,
"CCc1cc(C)cc(Br)c1C1=C(OC(=O)COC)C2(CCC(OC)CC2)NC1=O (single isomer, unassigned) [Example I-b-5]",100%,100%,100%,,,,70%,80%,70%,,100%,90%,35%,65%,98%,80%,,,,
"CCOC(=O)OC1=C(c2c(Cl)cc(C)cc2CC)C(=O)NC12CCC(OC)CC2 (single isomer, unassigned) [Example I-c-4]",100%,100%,100%,60%,,,,,80%,,80%,90%,20%,70%,,70%,80%,,,
"CCc1cc(C)cc(Br)c1C1=C(O)C2(CCC(OC)CC2)NC1=O (single isomer, unassigned) [Example I-a-3]",100%,100%,100%,,60%,,90%,100%,80%,80%,80%,100%,,20%,90%,,,100%,50%,95%
CCc1cc(C)cc(Br)c1C1=C(O)C2(CCCCC2)NC1=O [I-a-2],80%,90%,100%,,,,,,,,,,,,,,,,,
